# Tests used:
# [1] = system: Sinorhizobium meliloti strain 1021 cells; test: Cell resistance of Sinorhizobium meliloti cells to various stress conditions (colony counting after stress); assay type: cell-based
# Experimental: (§1) The number of colonies of not treated Sinorhizobium meliloti 1021 was compared to the one of the same strain treated with IAA (0.05 mM and 0.5 mM) two days after reaching the stationary phase of bacterial growth. The percentage value of the surviving cells was measured several days after treatment. Applied stresses were: pH 3 (acid stress): cells were incubated for 30 minutes and then plated; NaCl 0.5 M (high osmotic pressure): 3 hours incubation; UV light resistance: time was not determined but the UV dose was selected to reach an irradiation dosage of 100 J/m^2; treatment at high temperature 55° C.: cells were incubated for 5 minutes; treatment at low temperature (4° C.) cells were incubated for up to 60 days at 4° C.
# The author has assayed for the bacteria resistance to stresses such as low and high temperatures. For the resistance to high temperatures the cells were grown in exponential phase (optical density 0.6) and then incubated for 2 minutes at room temperature or at 55° C. and then plated.
# Sinorhizobium meliloti strain 1021 cells and its derivative RD64 overproducing IAA, were exposed to different stress conditions and the number of surviving cells counted by plating opportune dilutions on agar plates; after plates incubation at 30° C., the number of emerging colonies were counted (Table 1).
# As a control untreated cells were plated and the number of colonies was considered as 100% for that condition. Stress applied were: • 1) low pH, pH 3, treatment: 30 minutes; • 2) high osmotic pressure (0.5 M NaCl): 3 hours; • 3) UV irradiation were automatically set at 100 J/m^2 and cells were irradiate for less that 1 minute; • 4) High (55° C.) temperature treatment: 5 minutes. Results A) Expression of the Beta-glucuronidase Modulated by the Mutation in the Promoter-iaaMtms2 Sequence
# [2] = system: Sinorhizobium meliloti 1021; test: Growth and survival test in liquid minimal medium (colonies on agar plates after prolonged stationary phase); assay type: cell-based; conditions: for ability to generate colonies with respect to the reference strain (1021): FIG. 6; for increase of the ability to generate colonies: FIG. 7, 7 and 15 days after IAA addition
# Experimental: For the growth and survival tests the minimal medium was utilized. A culture of the various strains was kept in growth stationary phase for two days, then they were collected, properly diluted and plated at the various recommended periods of time so as to obtain about 100-1000 colonies per plate. For the strains to be treated with IAA, the addition (0.05 or 0.5 mM IAA) occurred after two days of growth in stationary phase, then the bacteria were diluted and plated.
# The author has evaluated the ability of S. meliloti 1021 to generate colonies on agar plates after prolonged incubation in growth medium. The formed colonies were counted on at least five plates and the experiment was repeated at least five times.
# as §1
# In fact, the following groups were compared: • Sm 1021; • Sm 1021 additioned with 0.5 mM IAA; • Sm 1021 additioned with 0.05 mM IAA; • Sm 1021 containing the wild promoter-iaaMtms2 construct (RD 64) • Sm 1021 containing the promoter-iaaMtms2 construct mutated in the −16/−14 GAC region (RD65); • Sm 1021 containing the promoter-iaaMtms2 construct mutated in the −48, 49, 51, 52 G region (RD66); • Sm 1021 containing the promoter-iaaMtms2 construct mutated in the −40-37 CCCC (RD67); b) Effect of Various IAA Concentrations on the Survival of Sinorhizobium Meliloti 1021
# In order to evaluate the effect of different IAA concentrations on the survival of Sinorhizobium meliloti 1021 the number of colonies generated on agar plates were evaluated (see FIG. 7). The utilized concentrations were 0.05; 0.2; 0.5; and 2 mM IAA. The inocula of the wild strain not treated with IAA were used as controls as well as the RD64 strain. The number of colonies of S.m. 1021 was arbitrarily set equal to 100%. The number of colonies generated after 7 and 15 days of growth after the IAA addition in the growth liquid medium was evaluated.
# [3] = system: Sinorhizobium meliloti 1021; test: Effect of dehydration on survival (vacuum-dried cells plated at increasing times); assay type: cell-based
# Experimental: A culture of the wild strain S. meliloti 1021, of the strain 64 and 66 were kept in growth stationary phase for three days, then they were dehydrated […] and plated at the various times shown in figure. Furthermore, a culture of the wild strain 1021 was subjected to analogous treatment, thereto 0.05 mM IAA were added after two days of growing in stationary phase, the stationary growth continued for a third day and then the bacteria were dehydrated and processed like the preceding samples.
# For the dehydration test (FIG. 8), the cells were grown until reaching the stationary phase and kept for 3 days in stationary phase. The cells were centrifuged at 4000 rpm for 15′, washed in water and counted on plates as live colonies. The cells were then diluted so as to be aliquoted in Eppendorf tubes at the concentration of 1:10000 for each sample and then vacuum-dried in Savant centrifuge. After 4, 8, 14 and 32 days, the aliquots were plated on TYR selective medium, the formed colonies were counted on at least three plates and the experiment was repeated at least three times.
# S. meliloti 1021 = test: Survival at low temperature (4° C.), colony counting; assay type: cell-based, Sinorhizobium meliloti; conditions: 0.5 mM IAA; after 45 and 60 days at 4° C.; FIG. 9
# Experimental: FIG. 9: Survival at 4° C. of wild type S. meliloti 1021 treated with IAA and of the strain RD64. The bacterial cells of the three analysed strains (wild type S.m. 1021, S.m. treated with 0.5 mM IAA and RD64) were grown until exponential phase, then plated and the plates were incubated at 4° C. for 15, 30, 45 and 60 days. Every 15 days, a plate group of each strain was transferred to 30° C. for one day and the colonies were counted.
# Furthermore, the author has assayed for the ability of the same strains to resist to prolonged incubations at low temperature (4° C.). The cells of the same three strains: Sm 1021, Sm 1021 treated with 0.5 mM IAA and the strain RD64, were grown until an optical density of 0.6, plated and incubated at 4° C. for periods of time variable up to two months.
compound,measurement,setting,value
"O=C(O)Cc1c[nH]c2ccccc12 [IAA, indole-3-acetic acid]","Survival (%), Osmotic shock (+0.5 M NaCl)","[1]; 0.5 M NaCl, 3 hours, unstressed cells = 100%, IAA added at 0.5 mM to 1021, strain 64 without addition",78 ± 1%
same,"Survival (%), Heat-shock (55° C.)","[1]; 55° C., 5 minutes, unstressed cells = 100%, IAA added at 0.5 mM to 1021, strain 64 without addition",0.196 ± 0.021%
same,"more resistant than the untreated 1021, high temperature","[1]; 55° C., relative to untreated 1021",10%
same,"Survival (%), UV-irradiation (100 J/m^2)","[1]; 100 J/m^2, unstressed cells = 100%, IAA added at 0.5 mM to 1021, strain 64 without addition",86 ± 1%
same,"more resistant than the untreated 1021, intense UV irradiation","[1]; UV irradiation, relative to untreated 1021",10%
same,colonies generated more than the control after heat shock,"[1]; heat shock, IAA at 0.05 mM as printed, relative to S.m. 1021",up to 20%
same,"more resistant than the untreated 1021, high osmotic solution","[1]; high osmotic solution, relative to untreated 1021",50%
same,"more resistant than the untreated 1021, very low pH","[1]; pH3, 30 minutes, relative to untreated 1021",100%
same,"Survival (%), Acid shock (pH 3.0)","[1]; pH 3, 30 minutes, unstressed cells = 100%, IAA added at 0.5 mM to 1021, strain 64 without addition",0.0023 ± 0.0006%
same,ability to generate colonies with respect to the reference strain (1021),[2]; 0.05 mM IAA added after two days in stationary phase,greater ability to generate colonies
same,increase of the ability to generate colonies,[2]; 0.2 mM IAA,effective to increase the ability to generate colonies
same,ability to generate colonies with respect to the reference strain (1021),[2]; 0.5 mM IAA added after two days in stationary phase,greater ability to generate colonies
same,increase of the ability to generate colonies,[2]; 0.5 mM IAA,effective to increase the ability to generate colonies
same,total increase in the number of live cells in liquid culture with respect to the wild strain,"[2]; purified IAA at 0.5 mM, after two growth weeks",at least 100%
same,increase of the survival of the bacterial cells under dehydration,"[3]; IAA at 0.05 mM, FIG. 8",up to 50%
same,"additional increase in the cellular survival of pelleted, dehydrated and plated cells","[3]; IAA purified at 0.05 mM, after two weeks",up to 40%
same,number of cells able to generate colonies after incubation at 4° C. with respect to the not treated strain,S. meliloti 1021,almost the double

# Source: patent publication US7846708B2, “Method for increasing the survival of bacterial strains of the Rhizobium genus” (Consiglo Nazionale delle Richerch, priority 2005, dated 2010)
